In test [1] the test system is TNF-alpha. As to the kind of experiment: TNF-alpha in BALF in SDX-induced eosinophilic airway inflammation. In kind it is in vivo, rat. Conditions: 1 mg/ml s.c. As to the method:
12 male Wistar rats aged 11-12 weeks, with an average weight of 323 g, were used in the study. The animals (n=3 in each group) were evaluated at 3 h and 24 h after induced inflammation. These were compared with control animals (n=3 in each group) examined at the same time points. An eosinophilic airway inflammation was induced by intratracheal instillation of SDX particles (G-200 Superfine, Pharmacia & Upjohn, Uppsala, Sweden) dissolved in phosphate-buffered saline (PBS) as previously described (Andersson S E, Zackrisson C, Hemsen A, Lundberg J M. Regulation of lung endothelin content by the glucocorticosteroid budesonide. Biochem Biophys Res Commun 1992, 188:1116-1121) and compared with that in control animals receiving a similar volume of PBS intratracheally. BAL was performed by instillation of 3+2+2 ml of PBS in the right stem bronchus distal to the upper lobe, and the procedure was repeated in the main bronchus on the left side. Immediately after the BAL procedure, the lungs were removed and frozen in liquid nitrogen for tissue analyses 3 h and 24 h after SDX instillation (n=3 animals at each time point) and 3 h and 24 after intratracheal instillation of saline into control animals (n=3). Oxytocin 1 mg/ml was given s.c.
TNF-alpha was measured with a rat-specific sandwich enzyme-linked immunosorbent assay (ELISA; Factor-Test-X, Genzyme, Cambridge, Mass.). […]

Test [2] deals with magnesium deficiency-induced dermatosis. Description: atopic dermatitis-like symptoms in hypomagnesaemic hairless rats. The test is classed as in vivo, rat. As to the method:
Male hairless rats (Ico:OFA hr/hr) were obtained from Iffa Credo (Lyon, France) immediately after weaning and housed under conventional standardised conditions in polycarbonate cages with wood chip bedding in a room with 12:12 h light/dark cycle, 24±1° C. The rats were fed with a standard maintenance diet low in magnesium (Altromin, Lage, Germany, C10350; 0.012% Mg^2+/kg dry matter) and demonised water was supplied ad libitum. This diet rendered the animals hypomagnesaemic. Magnesium (mean±SD, mmol/l) in serum fell to 0.58±0.23 on day 4, 0.36±0.18 on day 10, and to the lowest value (0.24±0.11) on day 15 on the diet. The lowest concentration was maintained up to the termination of the experiments. Under these conditions, the onset of clinical signs was after 6-8 days on the diet. The first signs were pronounced reddening and swelling of both ear lobes in all animals. […] Simultaneously with the onset of erythema, the rats began to scratch intensively and bite themselves, causing erosions and excoriations. Head, trunk, paws and tail were uniformly and intensely reddened within 2 days after the onset of signs. This stage was followed by the development of small papules and irregularly shaped plaques 1-2 cm in diameter on the trunk. The skin lesions and the signs of pruritus were most pronounced after 10-11 days on the diet, and were then constant for approximately 4 days. This acute stage was then followed by a decrease in general erythema and, subsequently, by the remission of papules and plaques within approximately 5 days. However, complete clearance was not observed.
Drug, formulations and treatment regimens: For topical administration, the oxytocin was dissolved in ethanol/propylene glycol (1 mg/ml).
The treatment was performed either unilaterally with the active drug on the right ear and with the vehicle contralaterally or bilaterally on both ears with oxytocin and vehicle, respectively. Therapeutic treatment was started immediately after clinical signs had fully developed and was given twice daily for 3 consecutive days. Prophylactic application was started on day 3 on the diet (i.e. 3-5 days before the expected onset of signs) and was given once daily for 7 days until day 9. Active drug or vehicle was applied in volumes of 20 μl to both sides of the ears.
For assessment of the therapeutic efficacy of oxytocin the animals were examined clinically once daily during the treatment period and for a further 7 days (topical treatment). Prophylactic activity was determined by daily examinations performed during the treatment period and a further 9 days. A score index (scale 0-3) for ear lesions was applied: 0, no change; 1, slight edematous, erythematous swelling; 2, moderate edematous, erythematous swelling; 3, pronounced edematous, erythematous swelling. In all experiments, the skin lesions were evaluated clinically by a single investigator unaware of the treatment allocation.

For test [3], the system named is collagenase-induced cutaneous inflammation. Description: collagenase-induced cutaneous plasma protein extravasation. In kind it is in vivo, guinea-pig. Here is the method: One hour after anaesthesia of guinea-pigs with urethane (1.6 g/kg, i.p.), Evans blue (20 mg/kg) was injected into a jugular vein. Collagenase ([…]) or its solvent ([…] 154 mmol/l NaCl solution) was injected s. c. into the dorsal skin. All doses of collagenase as well as the solvent were injected on both sides of the spine in randomised order. The ensuing plasma protein extravasation was determined at 60 min by extraction of Evans blue (see above) from the dorsal skin.
Oxytocin was dissolved and diluted in DMSO for all experiments involving s. c. injection in volumes of 1.0 ml/kg. All pretreatments were given 1 h prior to the induction of the respective model of inflammation. All animal experiments approved of by Karolinska institutets animal committe.
Oxytocin was a gift from Poly Peptides Copenhagen, Denmark and was dissolved in phosphate-buffered saline (composition in mmol/l: NaCl 136.9, KCl 2.7, KH2PO4 1.5, Na2HPO4 7.7). Cyclophosphamide monohydrate and collagenase from Clostridium histolyticum (type II, clostridiopeptidase A, EC 3.4.24.3) were obtained from Sigma and were dissolved in 154 mmol/l NaCl.

In test [4] the test system is carrageenan induced hyperalgesia. As to the kind of experiment: carrageenan induced hyperalgesia, Randall Selitto Test. The conditions noted are these: 1000 μg/kg s.c.; 1 hour and 6 hours after the injection, compared to controls; p<0.05. In kind it is in vivo, rat. Here is the method:
Nociceptive thresholds were measured in the rats given oxytocin 1000 μg/kg s.c. and their controls. This was done by determining the response to mechanical stimulation using the Randall Selitto Test (Ugo Basile, type 7200, Italy). The mechanical stimulus was applied to the dorsal surface of the hindpaw by a wedged-shape pusher at a loading rate of 48 g/s and the pressure required to initiate the struggle response was measured. All rats were trained on three consecutive days before testing.

For Oxytocin, the “TNF-alpha concentration in BALF” value in test [1] (3 h after SDX provocation) was “effectively inhibited the increase”. Also, the “TNF-alpha level relative to animals not receiving oxytocin” value in test [1] (24 h after SDX provocation) was determined as 32%. For the same substance, in test [2] (prophylactic topical, once daily day 3 to 9, vehicle-treated ears 9.2±0.7), the “sum of daily scores (ear lesions, scale 0-3) from day 3 to 10” value was determined as 2.4±1.1. Also, the “time after the last dose until which signs remained suppressed” value in test [2] (therapeutic, bilateral application, signs reappeared 4 or 5 days after the last dose) was determined as 3 days. Further, the “local erythematous swelling of the ears” value in test [2] (therapeutic, bilateral application, within 1 day after the first dose) is “significantly inhibited”. Also, the “local erythematous swelling of the ear” value in test [2] (therapeutic, epicutaneously on one ear, 1 mg/ml, within 1 day after the start of treatment) is given as “significantly reduced local erythematous swelling”. In test [2] (topical dose applied on the ears), the “systemic effect (distant erythematous lesions on the trunk and pruritus)” value is recorded as “no systemic effect”. Besides, the “effect on collagenase-induced plasma protein extravasation” value was “no effect” in test [3] (1 ug/ml oxytocin, 10 and 30 mg collagenase); “attenuated the effect” in test [3] (s.c. pre-treatment 1 mg/ml, higher doses of the enzyme). The “cutaneous plasma protein extravasation, Evans blue accumulation” value in test [3] (s.c. pre-treatment 1 mg/ml, 10 mg collagenase, without oxytocin 3.5±1.0) amounted to 2.2 ± 0.9 mg. Moreover, the “nociceptive threshold, response to mechanical stimulation” value in test [4] is “increase in withdrawal latency”.

The values are drawn from patent publication US20060234919A1, “Use” (priority 2001, published 2006).
